Drawing on US8933224B2, “Triazine derivatives” (Pfizer Inc., priority 2013, dated 2015), this text covers IC50 for 20 compounds.

A value given as a limit tells only on which side of the number the result lay.

Assay [1] has as its target rat PDE10 enzyme (Rattus norvegicus (Rat), UniProt Q9QYJ6). As to the kind of experiment: PDE10 scintillation proximity assay (SPA), inhibition of rat PDE10 enzyme activity. In kind it is biochemical. The conditions noted are these: geometric mean of 2-4 determinations unless otherwise indicated (b: ≧5 determinations; c: single determination). In short, it runs like this:
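SPA with fixed recombinant PDE10 (Sf21-expressed, Ni-NTA and Mono Q purified) converting ~20% of 20 nM ³H-cAMP in 50 mM TRIS pH 7.5, 1.3 mM MgCl2, 0.01% Brij, across an inhibitor range.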

Assay [2] has as its target human recombinant PDE10 enzyme (PDE10A) (Homo sapiens, UniProt Q9Y233). As to the kind of experiment: PDE10 scintillation proximity assay (SPA), inhibition of human recombinant PDE10 enzyme activity. The format is biochemical. The conditions noted are these: geometric mean of 2-4 determinations unless otherwise indicated (b: ≧5 determinations; c: single determination). As to the method:
PDE10 activity was measured using a scintillation assay (SPA-based method) similar to that previously described by Seeger, T. F. et al., Brain Research 985 (2003) 113-126. The compounds' relative activity as PDE10 inhibitors was investigated by assaying a fixed amount of enzyme in the presence of the test compound and low substrate concentration (cAMP) such that an IC50 could be determined. […] The assay is performed in a 384-well format with 50 μL assay buffer (50 mM TRIS pH 7.5; 1.3 mM MgCl2; 0.01% Brij) containing enough PDE10 to convert ˜20% of 20 nM ^3H-cAMP, and a range of inhibitors. Reactions are incubated for 30 minutes at 25° C. The addition of 20 μL of 8 mg/ml yttrium silicate SPA beads (PerkinElmer) stops the reaction. The plates are sealed (TopSeal, PerkinElmer) and the beads are allowed to settle for 8 hrs, after which they are read on the Trilux Microbeta overnight. ^1Rat enzyme preparation:^2Human enzyme preparation:
Human PDE10A coding sequence (amino acids 21 to 797 from the sequence with accession number NP_001124162.1) was synthesized using codon optimization for insect expression and cloned into the baculovirus expression vector pFastBac (Invitrogen) engineered to include a N-terminal His6 affinity tag to aid in purification as described in Seeger, T. F. et al., Brain Research 985 (2003) 113-126. The recombinant Bacmid was isolated and used to transfect sf9 insect cells to generate a viral stock. To generate cell paste for purification, sf21 cells were infected with the virus stock and cells were harvested 72 hours after infection as described in Seeger, T. F. et al., Brain Research 985 (2003) 113-126. Insect cell paste was lysed and after centrifugation, the supernatant was chromatographed on Ni-NTA agarose (Qiagen) as described in Seeger, T. F. et al., Brain Research 985 (2003) 113-126. Ni-NTA agarose eluting fractions containing PDE10A were chromatographed on Superdex 200 (GE Healthcare Life Sciences) in 50 mM Tris HCl pH 7.5, 150 mM NaCl, 1 mM EDTA, 10% glycerol, 2 mM TCEP, 1.5 mM benzamidine, EDTA-free protease inhibitors (Roche), and 5 μM E-64.

Sequence of rat PDE10 enzyme (Q9QYJ6 24-794): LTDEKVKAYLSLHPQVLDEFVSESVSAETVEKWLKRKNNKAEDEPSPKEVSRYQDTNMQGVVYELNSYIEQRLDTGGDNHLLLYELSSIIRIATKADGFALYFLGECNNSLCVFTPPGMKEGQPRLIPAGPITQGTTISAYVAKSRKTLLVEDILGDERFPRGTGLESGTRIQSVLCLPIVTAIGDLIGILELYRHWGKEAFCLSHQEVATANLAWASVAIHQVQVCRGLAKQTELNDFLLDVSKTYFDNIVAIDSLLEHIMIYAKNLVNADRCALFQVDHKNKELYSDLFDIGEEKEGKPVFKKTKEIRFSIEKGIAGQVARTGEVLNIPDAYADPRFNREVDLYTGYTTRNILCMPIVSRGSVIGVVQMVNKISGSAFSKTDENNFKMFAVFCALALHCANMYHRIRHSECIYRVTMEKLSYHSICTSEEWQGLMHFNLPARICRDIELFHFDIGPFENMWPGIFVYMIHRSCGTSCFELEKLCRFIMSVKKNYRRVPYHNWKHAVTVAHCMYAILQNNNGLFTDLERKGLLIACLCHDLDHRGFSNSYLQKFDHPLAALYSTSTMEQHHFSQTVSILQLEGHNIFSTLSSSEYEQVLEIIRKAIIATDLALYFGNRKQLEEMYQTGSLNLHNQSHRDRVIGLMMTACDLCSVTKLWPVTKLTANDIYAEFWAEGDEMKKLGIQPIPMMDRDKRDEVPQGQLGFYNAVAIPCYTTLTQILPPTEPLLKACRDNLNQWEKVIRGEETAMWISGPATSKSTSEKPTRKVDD

Take `Cc1nc(-c2ccccc2F)c2c(N3CCc4nc(C5CC5)nc(C(F)(F)F)c4C3)ncnn12` [Example 90, 2-cyclopropyl-6-[5-(2-fluorophenyl)-7-methylimidazo[5,1-f][1,2,4]triazin-4-yl]-4-(trifluoromethyl)-5,6,7,8-tetrahydropyrido[4,3-d]pyrimidine]: the half-inhibitory concentration (IC50) in assay [1] worked out at 3.09 nM; in assay [2], 4.55 nM.
As to `CCc1nc(C2CC2)nc2c1CN(c1ncnn3c(C)nc([C@@H]4CCOC4)c13)CC2` [Example 137], the IC50 in assay [1] was 0.095 nM; in assay [2] it was 0.0777 nM.
As to `COc1cnc2c(c1)CN(c1ncnn3c(C)nc(-c4ccccc4F)c13)CC2` [Example 25, 6-[5-(2-fluorophenyl)-7-methylimidazo[5,1-f][1,2,4]triazin-4-yl]-3-methoxy-5,6,7,8-tetrahydro-1,6-naphthyridine], the half-maximal inhibitory concentration (IC50) in assay [1] was 1.12 nM; in assay [2] it was 1.41 nM.
As for `Cc1nc(C2CC2)nc2c1CN(c1ncnn3c(C)nc(-c4ccccc4F)c13)CC2` [Example 40, 2-cyclopropyl-6-[5-(2-fluorophenyl)-7-methylimidazo[5,1-f][1,2,4]triazin-4-yl]-4-methyl-5,6,7,8-tetrahydropyrido[4,3-d]pyrimidine], the IC50 in assay [1] was determined as 0.442 nM; in assay [2], 0.98 nM.
Regarding `Cc1nc([C@@H]2CCOC2)c2c(N3CCc4nn(C)c(C5CC5)c4C3)ncnn12` [Example 44, 4-(3-cyclopropyl-2-methyl-2,4,6,7-tetrahydro-5H-pyrazolo[4,3-c]pyridin-5-yl)-7-methyl-5-[(3S)-tetrahydrofuran-3-yl]imidazo[5,1-f][1,2,4]triazine], the IC50 in assay [1] was determined as 0.102 nM; in assay [2], 0.11 nM.
With `Cc1nc([C@@H]2CCOC2)c2c(N3CCc4nc(C5CC5)n(C)c(=O)c4C3)ncnn12` [Example 143, 2-cyclopropyl-3-methyl-6-{7-methyl-5-[(3S)-tetrahydrofuran-3-yl]imidazo[5,1-f][1,2,4]triazin-4-yl}-5,6,7,8-tetrahydropyrido[4,3-d]pyrimidin-4(3H)-one], the IC50 in assay [1] was determined as 0.106 nM; in assay [2], 0.219 nM.
Consider `CNc1ccc2c(n1)CCN(c1ncnn3c(C)nc([C@@H]4CCOC4)c13)C2` [Example 152, N-methyl-6-{7-methyl-5-[(3S)-tetrahydrofuran-3-yl]imidazo[5,1-f][1,2,4]triazin-4-yl}-5,6,7,8-tetrahydro-1,6-naphthyridin-2-amine], for which the IC50 was less than 0.13 nM in assay [1] and 0.333 nM in assay [2].
On to `Cc1nc([C@@H]2CCOC2)c2c(N3Cc4c(cnn4C)C(C)C3)ncnn12` (stereo partly drawn) [Example 167, 4-(1,4-dimethyl-1,4,5,7-tetrahydro-6H-pyrazolo[3,4-c]pyridin-6-yl)-7-methyl-5-[(3S)-tetrahydrofuran-3-yl]imidazo[5,1-f][1,2,4]triazine], for which the IC50 in assay [1] was determined as 4.47 nM; in assay [2] it was 4.11 nM.
On the same counts, the results for `CCOc1nc(C)nc2c1CN(c1ncnn3c(C)nc([C@@H]4CCOC4)c13)CC2` [Example 35, 4-ethoxy-2-methyl-6-{7-methyl-5-[(3S)-tetrahydrofuran-3-yl]imidazo[5,1-f][1,2,4]triazin-4-yl}-5,6,7,8-tetrahydropyrido[4,3-d]pyrimidine] are 0.123 nM and 0.275 nM.
For `Cc1nc(C2CCOCC2)c2c(N3CCc4ncccc4C3)ncnn12` [Example 95, 6[7-methyl-5-(tetrahydro-2H-pyran-4-yl)imidazo[5,1-f][1,2,4]triazin-4-yl]-5,6,7,8-tetrahydro-1,6-naphthyridine], the figures for the IC50 in assay [1] and in assay [2] were 10.1 nM and 8.82 nM, respectively.
`CCc1c2c(nn1C)CCN(c1ncnn3c(C)nc([C@@H]4CCOC4)c13)C2` [Example 57, 4-(3-ethyl-2-methyl-2,4,6,7-tetrahydro-5H-pyrazolo[4,3-c]pyridin-5-yl)-7-methyl-5-[(3S)-tetrahydrofuran-3-yl]imidazo[5,1-f][1,2,4]triazine]: the IC50 in assay [1] is 0.364 nM; in assay [2], 13.8 nM.
As to `CCc1nc(C)nc2c1CN(c1ncnn3c(C)nc([C@@H]4CCOC4)c13)CC2` [Example 133, 4-ethyl-2-methyl-6-{7-methyl-5-[(3S)-tetrahydrofuran-3-yl]imidazo[5,1-f][1,2,4]triazin-4-yl}-5,6,7,8-tetrahydropyrido[4,3-d]pyrimidine], the IC50 in assay [1] came out at 0.37 nM; in assay [2], 0.625 nM.
Consider `COc1ccc2c(c1OCCF)CN(c1ncnn3c(C)nc([C@@H]4CCOC4)c13)CC2` [Example 4, 8-(2-Fluoroethoxy)-7-methoxy-2-{7-methyl-5-[(3S)-tetrahydrofuran-3-yl]imidazo[5,1-f][1,2,4]triazin-4-yl}-1,2,3,4-tetrahydroisoquinoline], for which the IC50 in assay [1] was determined as 0.205 nM; in assay [2], 0.0386 nM.
Regarding `Cc1nc([C@@H]2CCOC2)c2c(N3CCc4nn(C5CC5)cc4C3)ncnn12` [Example 11, 4-(2-Cyclopropyl-2,4,6,7-tetrahydro-5H-pyrazolo[4,3-c]pyridin-5-yl)-7-methyl-5-[(3S)-tetrahydrofuran-3-yl]imidazo[5,1-f][1,2,4]triazine], the IC50 in assay [1] is 0.174 nM; in assay [2], 0.265 nM.
With `Cc1nc(-c2ccccc2F)c2c(N3CCc4ccc(C5CC5)nc4C3)ncnn12` [Example 75, 2-cyclopropyl-7-[5-(2-fluorophenyl)-7-methylimidazo[5,1-f][1,2,4]triazin-4-yl]-5,6,7,8-tetrahydro-1,7-naphthyridine], the half-maximal inhibitory concentration (IC50) in assay [1] amounted to 3.56 nM; in assay [2], 6.03 nM.
For the compound `Cc1nc(-c2ccccc2F)c2c(N3CCc4cnn(CC5CCC5)c4C3)ncnn12` [Example 175, 4-[1-(cyclobutylmethyl)-1,4,5,7-tetrahydro-6H-pyrazolo[3,4-c]pyridin-6-yl]-5-(2-fluorophenyl)-7-methylimidazo[5,1-f][1,2,4]triazine], the concentration for half-maximal inhibition (IC50) in assay [1] turned out to be 0.878 nM; in assay [2], 1.94 nM.
Regarding `CCn1ncc2c1CN(c1ncnn3c(C)nc(-c4ccccc4F)c13)CC2` [Example 166, 4-(1-ethyl-1,4,5,7-tetrahydro-6H-pyrazolo[3,4-c]pyridin-6-yl)-5-(2-fluorophenyl)-7-methylimidazo[5,1-f][1,2,4]triazine], the IC50 in assay [1] is 0.435 nM; in assay [2], 0.801 nM.
`Cc1nc([C@@H]2CCOC2)c2c(N3CCc4cnn(CC5CCC5)c4C3)ncnn12` [Example 174, 4-[1-(cyclobutylmethyl)-1,4,5,7-tetrahydro-6H-pyrazolo[3,4-c]pyridin-6-yl]-7-methyl-5-[(3S)-tetrahydrofuran-3-yl]imidazo[5,1-f][1,2,4]triazine]: the IC50 in assay [1] is 0.359 nM; in assay [2], 0.345 nM.
The corresponding values for `COc1ccc2c(n1)CN(c1ncnn3c(C)nc([C@@H]4CCOC4)c13)CC2` [Example 19, 2-methoxy-7-{7-methyl-5-[(3S)-tetrahydrofuran-3-yl]imidazo[5,1-f][1,2,4]triazin-4-yl}-5,6,7,8-tetrahydro-1,7-naphthyridine] are 2.04 nM and 2.75 nM.
With `COc1cnc2c(c1)CN(c1ncnn3c(C)nc([C@@H]4CCOC4)c13)CC2` [Example 29, 3-methoxy-6-{7-methyl-5-[(3S)-tetrahydrofuran-3-yl]imidazo[5,1-f][1,2,4]triazin-4-yl}-5,6,7,8-tetrahydro-1,6-naphthyridine], the figures for the IC50 in assay [1] and in assay [2] were 0.307 nM and 0.384 nM, respectively.
